From US12421251B2, “Cystic fibrosis transmembrane conductance regulator modulating agents” (VERTEX PHARMACEUTICALS INCORPORATED, priority 2019, dated 2025)

Biological target: CFTR (Homo sapiens, UniProt P13569)
Test: Membrane potential dye assay (FLIPR Tetra) of CFTR-mediated chloride transport in enteroid cells
Assay type: cell-based
Details: human intestinal epithelial enteroid cells, 18-24 h incubation with test compound, acute 10 μM forskolin and 300 nM Compound III; for EC50: CFTR-mediated chloride transport; for Max. Activity: chloride transport as % of triple combination positive control (% Activity)
Procedure: Base medium (ADF+++) consisted of Advanced DMEM/Ham's F12, 2 mM Glutamax, 10 mM HEPES, 1 μg/ml penicillin/streptomycin.
Intestinal enteroid maintenance medium (IEMM) consisted of ADF+++, 1×B27 supplement, 1×N2 supplement, 1.25 mM N-acetyl cysteine, 10 mM Nicotinamide, 50 ng/mL hEGF, 10 nM Gastrin, 1 μg/mL hR-spondin-1, 100 ng/mL hNoggin, TGF-b type 1 inhibitor A-83-01, 100 μg/mL Primocin, 10 μM P38 MAPK inhibitor SB202190.
Bath 1 Buffer consisted of 1 mM MgCl2, 160 mM NaCl, 4.5 mM KCl, 10 mM HEPES, 10 mM Glucose, 2 mM CaCl2.
Chloride Free Buffer consisted of 1 mM Magnesium Gluconate, 2 mM Calcium Gluconate, 4.5 mM Potassium Gluconate, 160 mM Sodium Gluconate, 10 mM HEPES, 10 mM Glucose.
Bath1 Dye Solution consisted of Bath 1 Buffer, 0.04% Pluronic F127, 20 μM Methyl Oxonol, 30 μM CaCCinh-A01, 30 μM Chicago Sky Blue.
Chloride Free Dye Solution consisted of Chloride Free Buffer, 0.04% Pluronic F127, 20 μM Methyl Oxonol, 30 μM CaCCinh-A01, 30 μM Chicago Sky Blue.
Chloride Free Dye Stimulation Solution consisted of Chloride Free Dye Solution, 10 μM forskolin, 100 μM IBMX, and 300 nM Compound III.
Human intestinal epithelial enteroid cells were obtained from the Hubrecht Institute for Developmental Biology and Stem Cell Research, Utrecht, The Netherlands and expanded in T-Flasks as previously described (Dekkers J F, Wiegerinck C L, de Jonge H R, Bronsveld I, Janssens H M, de Winter-de Groot K M, Brandsma A M, de Jong N W M, Bijvelds M J C, Scholte B J, Nieuwenhuis E E S, van den Brink S, Clevers H, van der Ent C K, Middendorp S and M Beekman J M. A functional CFTR assay using primary cystic fibrosis intestinal organoids. Nat. Med. 2013 July; 19(7):939-45.
Enteroid Cell Harvesting and Seeding
Cells were recovered in cell recovery solution, collected by centrifugation at 650 rpm for 5 min at 4° C., resuspended in TryPLE and incubated for 5 min at 37° C. Cells were then collected by centrifugation at 650 rpm for 5 min at 4° C. and resuspended in IEMM containing 10 μM ROCK inhibitor (RI). The cell suspension was passed through a 40 μm cell strainer and resuspended at 1×10^6 cells/mL in IEMM containing 10 μM RI. Cells were seeded at 5000 cells/well into multi-well plates and incubated for overnight at 37° C., 95% humidity and 5% CO2 prior to assay.
Membrane Potential Dye Assay
Enteroid cells were incubated with test compound in IEMM for 18-24 h at 37° C., 95% humidity and 5% CO2. Following compound incubations, a membrane potential dye assay was employed using a FLIPR Tetra to directly measure the potency and efficacy of the test compound on CFTR-mediated chloride transport following acute addition of 10 μM forskolin and 300 nM N-[2,4-bis(1,1-dimethylethyl)-5-hydroxyphenyl]-1,4-dihydro-4-oxoquinoline-3-carboxamide. Briefly, cells were washed 5 times in Bath 1 Buffer. Bath 1 Dye Solution was added and the cells were incubated for 25 min at ambient temperature. Following dye incubation, cells were washed 3 times in Chloride Free Dye Solution. Chloride transport was initiated by addition of Chloride Free Dye Stimulation Solution and the fluorescence signal was read for 15 min. The CFTR-mediated chloride transport for each condition was determined from the AUC of the fluorescence response to acute forskolin and 300 nM N-[2,4-bis(1,1-dimethylethyl)-5-hydroxyphenyl]-1,4-dihydro-4-oxoquinoline-3-carboxamide stimulation. Chloride transport was then expressed as a percentage of the chloride transport following treatment with 1 μM (14S)-8-[3-(2-{Dispiro[2.0.2.1]heptan-7-yl}ethoxy)-1H-pyrazol-1-yl]-12,12-dimethyl-2λ^6-thia-3,9,11,18,23-pentaazatetracyclo[17.3.1.111,14.05,10]-tetracosa-1(22),5,7,9,19(23),20-hexaene-2,2,4-trione, 3 μM ((R)-1-(2,2-difluorobenzo[d][1,3]dioxol-5-yl)-N-(1-(2,3-dihydroxypropyl)-6-fluoro-2-(1-hydroxy-2-methylpropan-2-yl)-1H-indol-5-yl)cyclopropanecarboxamide and 300 nM acute N-[2,4-bis(1,1-dimethylethyl)-5-hydroxyphenyl]-1,4-dihydro-4-oxoquinoline-3-carboxamide triple combination positive control (% Activity). […]

Sequence of CFTR (P13569 with tags, fused parts or gaps DEL508-508): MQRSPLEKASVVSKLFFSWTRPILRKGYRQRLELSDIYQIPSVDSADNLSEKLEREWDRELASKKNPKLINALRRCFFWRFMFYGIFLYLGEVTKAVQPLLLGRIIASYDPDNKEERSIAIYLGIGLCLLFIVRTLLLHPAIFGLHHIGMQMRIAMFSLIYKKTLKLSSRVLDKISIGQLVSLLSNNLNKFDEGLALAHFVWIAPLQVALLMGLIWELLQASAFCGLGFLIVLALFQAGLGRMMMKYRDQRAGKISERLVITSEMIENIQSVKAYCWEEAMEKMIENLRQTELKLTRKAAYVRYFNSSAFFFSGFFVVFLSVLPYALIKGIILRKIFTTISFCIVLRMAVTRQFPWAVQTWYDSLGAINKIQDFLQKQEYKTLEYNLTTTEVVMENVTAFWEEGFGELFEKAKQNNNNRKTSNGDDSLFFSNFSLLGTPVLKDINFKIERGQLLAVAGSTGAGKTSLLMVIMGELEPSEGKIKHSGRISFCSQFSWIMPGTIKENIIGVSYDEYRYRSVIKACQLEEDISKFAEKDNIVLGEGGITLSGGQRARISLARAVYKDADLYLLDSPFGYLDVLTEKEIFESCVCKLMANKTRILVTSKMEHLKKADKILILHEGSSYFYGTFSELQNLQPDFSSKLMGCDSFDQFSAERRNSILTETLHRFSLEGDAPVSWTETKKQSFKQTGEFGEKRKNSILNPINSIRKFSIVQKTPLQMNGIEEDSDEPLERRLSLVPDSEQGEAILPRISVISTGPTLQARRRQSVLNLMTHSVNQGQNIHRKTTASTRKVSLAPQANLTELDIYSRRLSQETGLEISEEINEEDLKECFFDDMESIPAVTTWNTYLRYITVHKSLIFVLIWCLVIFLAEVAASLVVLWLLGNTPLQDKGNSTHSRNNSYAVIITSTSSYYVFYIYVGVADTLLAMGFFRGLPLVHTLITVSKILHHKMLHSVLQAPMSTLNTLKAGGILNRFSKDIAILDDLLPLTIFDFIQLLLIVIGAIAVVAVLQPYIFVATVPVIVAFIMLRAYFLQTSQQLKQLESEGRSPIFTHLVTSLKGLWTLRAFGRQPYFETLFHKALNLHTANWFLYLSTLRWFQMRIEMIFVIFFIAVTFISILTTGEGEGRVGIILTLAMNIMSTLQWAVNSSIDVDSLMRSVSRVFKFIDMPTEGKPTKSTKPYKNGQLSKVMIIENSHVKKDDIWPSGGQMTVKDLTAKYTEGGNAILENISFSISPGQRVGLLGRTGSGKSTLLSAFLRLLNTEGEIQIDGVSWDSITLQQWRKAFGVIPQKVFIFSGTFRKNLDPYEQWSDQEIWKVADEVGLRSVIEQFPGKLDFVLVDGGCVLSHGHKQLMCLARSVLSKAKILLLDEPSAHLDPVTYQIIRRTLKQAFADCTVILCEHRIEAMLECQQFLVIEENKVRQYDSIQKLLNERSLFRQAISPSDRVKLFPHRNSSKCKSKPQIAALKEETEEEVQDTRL

Compound	EC50 [nM]	Max. Activity
[2H]C([2H])([2H])c1cccc(C([2H])([2H])[2H])c1-c1cc2nc(n1)NS(=O)(=O)c1cccc(c1)C(=O)N(C1CC3(CC3)C1)[C@H](CC(C)C)CO2 [Compound Id, (11R)-6-[2,6-di(trideutero)methylphenyl]-11-(2-methylpropyl)-12-{spiro[2.3]hexan-5-yl}-9-oxa-2λ^6-thia-3,5,12,19-tetraazatricyclo[12.3.1.14,8]nonadeca-1(17),4(19),5,7,14(18),15-hexaene-2,2,13-trione]	< 1000	+++ (+++ is >60%)
[2H]C1([2H])C2(CC2)C([2H])([2H])C1([2H])N1C(=O)c2cccc(c2)S(=O)(=O)Nc2nc(cc(-c3c(C)cccc3C)n2)OC[C@H]1CC(C)C [Compound Ib, (11R)-6-(2,6-Dimethylphenyl)-11-isobutyl-2,2-dioxo-12-(4,4,5,6,6-pentadeuteriospiro[2.3]hexan-5-yl)-9-oxa-2-thia-3,5,12,19-tetrazatricyclo[12.3.1.14,8]nonadeca-1(18),4,6,8(19),14,16-hexaen-13-one]	< 1000	+++ (+++ is >60%)
[2H]C1(N2C(=O)c3cccc(c3)S(=O)(=O)Nc3nc(cc(-c4c(C)cccc4C)n3)OC[C@H]2CC(C)C)CC2(CC2)C1 [Compound Ic, (11R)-12-(5-Deuteriospiro[2.3]hexan-5-yl)-6-(2,6-dimethylphenyl)-11-isobutyl-2,2-dioxo-9-oxa-2-thia-3,5,12,19-tetrazatricyclo[12.3.1.14,8]nonadeca-1(18),4,6,8(19),14,16-hexaen-13-one]	< 1000	+++ (+++ is >60%)
Cc1cccc(C)c1-c1cc2nc(n1)NS(=O)(=O)c1cccc(c1)C(=O)N(C1CC3(CC3)C1)[C@H](CC(C)C)CO2 [Compound I, (11R)-6-(2,6-dimethylphenyl)-11-(2-methylpropyl)-12-{spiro[2.3]hexan-5-yl}-9-oxa-2λ^6-thia-3,5,12,19-tetraazatricyclo[12.3.1.14,8]nonadeca-1(17),4(19),5,7,14(18),15-hexaene-2,2,13-trione]	< 1000	+++ (+++ is >60%)
[2H]C1([2H])C([2H])([2H])C12CC(N1C(=O)c3cccc(c3)S(=O)(=O)Nc3nc(cc(-c4c(C)cccc4C)n3)OC[C@H]1CC(C)C)C2 [Compound Ia, (11R)-6-(2,6-Dimethylphenyl)-11-(2-methylpropyl)-12-[(1,1,2,2-tetradeutero)spiro[2.3]hexan-5-yl]-9-oxa-2λ^6-thia-3,5,12,19-tetraazatricyclo[12.3.1.14,8]nonadeca-1(17),4(19),5,7,14(18),15-hexaene-2,2,13-trione]	< 1000	+++ (+++ is >60%)
